# Test results: patent US5470852A, “Tetrahydroprotoberberine quaternary ammonium compounds useful in for treating arrhythmia” (priority 1991, dated 1995)
# Like-named read-outs stand apart in the source and are kept apart here.
# Assays:
# anaesthetized rats = conditions: for Death / animals with VF / animals without VF: of n=10; for therapeutic index (TI), VF / therapeutic index (TI), arrhythmias: rat, in vivo
# [1] = test system: Langendorff's perfused rat hearts; test: Lasting antiarrhythmic action after po administration, hearts removed and mounted on Langendorff's apparatus; assay type: in vivo; design: ke: unit not given beside the values
# Protocol: 1, 3 and 6 hours after the administration of 100 mg/kg of I13 by p.o. to rats, the hearts were removed and mounted onto Langendorff's apparatus. […] (see FIG. 4)
# FIG. 4. Influence of po I13 and mexiletine on the time course of reperfusion-induced arrhythmias in Langendorff's perfused rat hearts
# [2] = test system: normal papillary muscles of guinea pig; test: Action potential of normal papillary muscles of guinea pig; assay type: cell-based; conditions: for APA (action potential amplitude) / APD20 / APD50 / APD90 / ERP (effective refractory period) / RP (resting potential) / Vmax: n=7
# From the text: Effect of I13 on estimates of action potential of normal papillary
structure (smiles),measurement,setting,value
"COc1ccc2c(c1OC)C[N+]1(Cc3ccc(Cl)cc3)CCc3cc4c(cc3C1C2)OCO4 (centres unmarked) [Compound I13, 7-(4-chlorobenzyl)-5,8,13,13a-tetrahydroberberine chloride]",Death,anaesthetized rats; po 30 mg/kg,1
same,animals with VF,anaesthetized rats; po 30 mg/kg,2
same,animals without VF,anaesthetized rats; po 30 mg/kg,7
same,Antiarrhythmic effect,"anaesthetized rats; po 30 mg/kg, reperfusion 0.17 min, X ± SD",3.2 ± 1.2
same,Antiarrhythmic effect,"anaesthetized rats; po 30 mg/kg, reperfusion 0.33 min, X ± SD",2.8 ± 2.1
same,Antiarrhythmic effect,"anaesthetized rats; po 30 mg/kg, reperfusion 0.5 min, X ± SD",1.7 ± 1.7
same,Antiarrhythmic effect,"anaesthetized rats; po 30 mg/kg, reperfusion 1 min, X ± SD",1.1 ± 1.5
same,Antiarrhythmic effect,"anaesthetized rats; po 30 mg/kg, reperfusion 1.5 min, X ± SD",1.1 ± 1.5
same,Antiarrhythmic effect,"anaesthetized rats; po 30 mg/kg, reperfusion 3 min, X ± SD",1.6 ± 2.4
same,Antiarrhythmic effect,"anaesthetized rats; po 30 mg/kg, reperfusion 4 min, X ± SD",0.8 ± 1.3
same,Antiarrhythmic effect,"anaesthetized rats; po 30 mg/kg, reperfusion 5 min, X ± SD",0.2 ± 0.2
same,Antiarrhythmic effect,"anaesthetized rats; po 30 mg/kg, reperfusion 6 min, X ± SD",0.2 ± 0.2
same,Antiarrhythmic effect,"anaesthetized rats; po 30 mg/kg, reperfusion 7 min, X ± SD",0.15 ± 0.24
same,Antiarrhythmic effect,"anaesthetized rats; po 30 mg/kg, reperfusion 15 min, X ± SD",0.11 ± 0.22
same,Antiarrhythmic effect,"anaesthetized rats; po 30 mg/kg, reperfusion 25 min, X ± SD",0.05 ± 0.17
same,Arrhythmic scores,"anaesthetized rats; po 100 mg/kg, X ± SD",0.7 ± 0.2
same,Lethal risk,"anaesthetized rats; po 100 mg/kg, X ± SD",41 ± 0
same,Antiarrhythmic effect,"anaesthetized rats; po 100 mg/kg, coronary occlusion 5 min, X ± SD",0.20 ± 0.24
same,Antiarrhythmic effect,"anaesthetized rats; po 100 mg/kg, coronary occlusion 10 min, X ± SD",0.3 ± 0.6
same,Incidence of VF,"anaesthetized rats; po 100 mg/kg, n=10",0%
same,Death,anaesthetized rats; po 100 mg/kg,0
same,animals with VF,anaesthetized rats; po 100 mg/kg,0
same,animals without VF,anaesthetized rats; po 100 mg/kg,10
same,Antiarrhythmic effect,"anaesthetized rats; po 100 mg/kg, reperfusion 0.17 min, X ± SD",0.10 ± 0.21
same,Antiarrhythmic effect,"anaesthetized rats; po 100 mg/kg, reperfusion 0.33 min, X ± SD",0.05 ± 0.16
same,Antiarrhythmic effect,"anaesthetized rats; po 100 mg/kg, reperfusion 0.5 min, X ± SD",0.4 ± 1.2
same,Antiarrhythmic effect,"anaesthetized rats; po 100 mg/kg, reperfusion 1 min, X ± SD",0.05 ± 0.16
same,Antiarrhythmic effect,"anaesthetized rats; po 100 mg/kg, reperfusion 1.5 min, X ± SD",0.05 ± 0.16
same,Antiarrhythmic effect,"anaesthetized rats; po 100 mg/kg, reperfusion 3 min, X ± SD",0.05 ± 0.16
same,Antiarrhythmic effect,"anaesthetized rats; po 100 mg/kg, reperfusion 4 min, X ± SD",0.05 ± 0.16
same,Antiarrhythmic effect,"anaesthetized rats; po 100 mg/kg, reperfusion 5 min, X ± SD",0.05 ± 0.16
same,Antiarrhythmic effect,"anaesthetized rats; po 100 mg/kg, reperfusion 6 min, X ± SD",0.05 ± 0.16
same,Antiarrhythmic effect,"anaesthetized rats; po 100 mg/kg, reperfusion 7 min, X ± SD",0.05 ± 0.16
same,Antiarrhythmic effect,"anaesthetized rats; po 100 mg/kg, reperfusion 15 min, X ± SD",0.05 ± 0.16
same,Antiarrhythmic effect,"anaesthetized rats; po 100 mg/kg, reperfusion 25 min, X ± SD",0.05 ± 0.16
same,"therapeutic index (TI), VF",anaesthetized rats; iv,35
same,"therapeutic index (TI), arrhythmias",anaesthetized rats; iv,26
same,"therapeutic index (TI), VF",anaesthetized rats; po,92
same,"therapeutic index (TI), arrhythmias",anaesthetized rats; po,70
same,ke,[1]; 30 mg/kg po at 1 hr before experiment (FIG. 4),0.144
same,ke,[1]; 100 mg/kg po at 1 hr before experiment (FIG. 4),0.556
same,ke,[1]; 100 mg/kg po at 3 hr before experiment (FIG. 4),0.056
same,ke,[1]; 100 mg/kg po at 6 hr before experiment (FIG. 4),0.037
same,antiarrhythmic effects after washing isolated hearts,"[1]; 1, 3 and 6 hours after p.o. 100 mg/kg, 30 min washing",persisted even after 30 minutes of washing
same,influence on APA,[2],no influence
same,influence on RP,[2],no influence
same,influence on APD50 (printed ADP50),[2]; 0.3 μmol/L,able to lengthen ADP50
same,APA (action potential amplitude),[2]; 0.3 μmol/L,125 ± 3 mv
same,APD20,[2]; 0.3 μmol/L,88 ± 13 ms
same,APD50,[2]; 0.3 μmol/L,176 ± 29 ms
same,APD90,[2]; 0.3 μmol/L,201 ± 30 ms
same,ERP (effective refractory period),[2]; 0.3 μmol/L,201 ± 28 ms
same,RP (resting potential),[2]; 0.3 μmol/L,91 ± 1 mv
same,Vmax,[2]; 0.3 μmol/L,260 ± 60 v/s
same,APA (action potential amplitude),[2]; 1 μmol/L,123 ± 3 mv
same,APD20,[2]; 1 μmol/L,86 ± 10 ms
same,APD50,[2]; 1 μmol/L,181 ± 27 ms
same,APD90,[2]; 1 μmol/L,208 ± 29 ms
same,ERP (effective refractory period),[2]; 1 μmol/L,207 ± 27 ms
same,RP (resting potential),[2]; 1 μmol/L,90 ± 1 mv
same,Vmax,[2]; 1 μmol/L,250 ± 70 v/s
same,APA (action potential amplitude),[2]; 3 μmol/L,123 ± 3 mv
same,APD20,[2]; 3 μmol/L,84 ± 8 ms
same,APD50,[2]; 3 μmol/L,182 ± 23 ms
same,APD90,[2]; 3 μmol/L,211 ± 26 ms
same,ERP (effective refractory period),[2]; 3 μmol/L,213 ± 18 ms
same,RP (resting potential),[2]; 3 μmol/L,89 ± 3 mv
same,Vmax,[2]; 3 μmol/L,217 ± 60 v/s
same,APA (action potential amplitude),[2]; 10 μmol/L,122 ± 3 mv
same,APD20,[2]; 10 μmol/L,80 ± 5 ms
same,APD50,[2]; 10 μmol/L,161 ± 28 ms
same,APD90,[2]; 10 μmol/L,206 ± 26 ms
same,ERP (effective refractory period),[2]; 10 μmol/L,211 ± 23 ms
same,RP (resting potential),[2]; 10 μmol/L,89 ± 1 mv
same,Vmax,[2]; 10 μmol/L,180 ± 60 v/s
same,APA (action potential amplitude),[2]; 30 μmol/L,116 ± 5 mv
same,APD20,[2]; 30 μmol/L,58 ± 11 ms
same,APD50,[2]; 30 μmol/L,128 ± 19 ms
same,APD90,[2]; 30 μmol/L,158 ± 22 ms
same,ERP (effective refractory period),[2]; 30 μmol/L,166 ± 24 ms
same,RP (resting potential),[2]; 30 μmol/L,87 ± 3 mv
same,Vmax,[2]; 30 μmol/L,140 ± 50 v/s
same,"influence on APD50 and APD90 (printed ADP50, ADP90)",[2]; 1 to 3 μmol/L,prolonged
same,inhibition at 3 µM,"[2]; Cavia porcellus, 3 μmol/L, isolated papillary muscles of guinea pigs, read-out: inhibition of Vmax",20%
same,antiarrhythmic class properties,[2]; electrophysiological studies,"properties of Ia, Ib and III"
same,two-phase effect on APD,[2]; low vs high concentrations,lengthened at low concentrations and shortened at high concentrations
